Laboratory results reported in patent US20100068545A1, “Compositions and methods for wood preservation” (priority 2005, published 2010).

Columns and labels:
termites = assay: AWPA E7-01 field stake test, termite ratings, Gainesville, Florida; format: in vivo; parameters: scale not given here
Description: (§1) Preservative treating solutions were prepared by the mixing the concentrates in Example 1 with ethanol. The treated stakes were installed in Gainesville, Fla. for field performance evaluation following the procedure described in American Wood Preservers' Association (AWPA) Standard E7-01: “Standard Method of Evaluating Wood Preservatives by Field Tests with Stakes”.
(§2) Preservative treating solutions were prepared by the mixing the concentrates in Example 1 with toluene. The treated stakes were installed in Gainesville, Fla. for field performance evaluation following the procedure described in American Wood Preservers' Association (AWPA) Standard E7-01: “Standard Method of Evaluating Wood Preservatives by Field Tests with Stakes”.
Preservative treating solutions were prepared by the mixing the concentrates in Example 2 and 13. The treated stakes were installed in Gainesville, Fla. for field performance evaluation following the procedure described in American Wood Preservers' Association (AWPA) Standard E7-01: “Standard Method of Evaluating Wood Preservatives by Field Tests with Stakes”.
Preservative treating solutions were prepared by the mixing the concentrates in Example 1 with white spirits. The treated stakes were installed in Gainesville, Fla. for field performance evaluation following the procedure described in American Wood Preservers' Association (AWPA) Standard E7-01: “Standard Method of Evaluating Wood Preservatives by Field Tests with Stakes”.

decay fungi = assay: AWPA E7-01 field stake test, decay ratings, Gainesville, Florida; format: in vivo; parameters: scale not given here
Description: as §1, §2
Preservative treating solutions were prepared by the mixing the concentrates in Example 2 and 13. The treated stakes were installed in Gainesville, Fla. for field performance evaluation following the procedure described in American Wood Preservers' Association (AWPA) Standard E7-01: “Standard Method of Evaluating Wood Preservatives by Field Tests with Stakes”. […]

brown rots or white rots = assay: Accelerated decay testing in the lab; details: pyrethroid insecticide alone
From the text: Provided herein is an organic composition and method for use thereof in treatment of cellulosic material, more particularly wood. The composition comprises an azole or quaternary ammonium fungicide compound, and a pyrethroid insecticide. The composition imparts to the treated wood resistance to both fungi and insects. […] This has been confirmed by accelerated decay testing in the lab.

[1] = 12 months, retention 0.32 kg/m^3, Ex. 14, ethanol solution
[2] = 12 months, retention 0.32 kg/m^3, Ex. 15, toluene solution
[3] = 12 months, retention 0.32 kg/m^3, Ex. 16, concentrates of Ex. 2 and 13
[4] = 12 months, retention 0.48 kg/m^3, Ex. 14, ethanol solution
[5] = 12 months, retention 0.48 kg/m^3, Ex. 15, toluene solution
[6] = 12 months, retention 0.48 kg/m^3, Ex. 16, concentrates of Ex. 2 and 13
[7] = 12 months, retention 0.64 kg/m^3, Ex. 14, ethanol solution
[8] = 12 months, retention 0.64 kg/m^3, Ex. 15, toluene solution
[9] = 12 months, retention 0.64 kg/m^3, Ex. 16, concentrates of Ex. 2 and 13
[10] = 24 months, retention 0.32 kg/m^3, Ex. 14, ethanol solution
[11] = 24 months, retention 0.32 kg/m^3, Ex. 15, toluene solution
[12] = 24 months, retention 0.32 kg/m^3, Ex. 16, concentrates of Ex. 2 and 13
[13] = 24 months, retention 0.48 kg/m^3, Ex. 14, ethanol solution
[14] = 24 months, retention 0.48 kg/m^3, Ex. 15, toluene solution
[15] = 24 months, retention 0.48 kg/m^3, Ex. 16, concentrates of Ex. 2 and 13
[16] = 24 months, retention 0.64 kg/m^3, Ex. 14, ethanol solution
[17] = 24 months, retention 0.64 kg/m^3, Ex. 15, toluene solution
[18] = 24 months, retention 0.64 kg/m^3, Ex. 16, concentrates of Ex. 2 and 13
[19] = 36 months, retention 0.32 kg/m^3, Ex. 14, ethanol solution
[20] = 36 months, retention 0.32 kg/m^3, Ex. 15, toluene solution
[21] = 36 months, retention 0.32 kg/m^3, Ex. 16, concentrates of Ex. 2 and 13
[22] = 36 months, retention 0.48 kg/m^3, Ex. 14, ethanol solution
[23] = 36 months, retention 0.48 kg/m^3, Ex. 15, toluene solution
[24] = 36 months, retention 0.48 kg/m^3, Ex. 16, concentrates of Ex. 2 and 13
[25] = 36 months, retention 0.64 kg/m^3, Ex. 14, ethanol solution
[26] = 36 months, retention 0.64 kg/m^3, Ex. 15, toluene solution
[27] = 36 months, retention 0.64 kg/m^3, Ex. 16, concentrates of Ex. 2 and 13
[28] = 48 months, retention 0.32 kg/m^3, Ex. 14, ethanol solution
[29] = 48 months, retention 0.32 kg/m^3, Ex. 15, toluene solution
[30] = 48 months, retention 0.32 kg/m^3, Ex. 16, concentrates of Ex. 2 and 13
[31] = 48 months, retention 0.48 kg/m^3, Ex. 14, ethanol solution
[32] = 48 months, retention 0.48 kg/m^3, Ex. 15, toluene solution
[33] = 48 months, retention 0.48 kg/m^3, Ex. 16, concentrates of Ex. 2 and 13
[34] = 48 months, retention 0.64 kg/m^3, Ex. 14, ethanol solution
[35] = 48 months, retention 0.64 kg/m^3, Ex. 15, toluene solution
[36] = 48 months, retention 0.64 kg/m^3, Ex. 16, concentrates of Ex. 2 and 13

CC(C)(C)C(O)(CCc1ccc(Cl)cc1)Cn1cncn1 (racemic) [Tebuconazole, (RS)-1-p-chlorophenyl-4,4-dimethyl-3-(1H-1,2,4-triazol-1-ylmethyl)pentan-3-ol]
Average Termite Rating (termites; [1]): 4.2 | Average Termite Rating (termites; [2]): 4.2 | Average Termite Rating (termites; [3]): 4.2 | Average Termite Rating (termites; [4]): 4.5 | Average Termite Rating (termites; [5]): 4.5 | Average Termite Rating (termites; [6]): 4.5 | Average Termite Rating (termites; [7]): 4.8 | Average Termite Rating (termites; [8]): 4.8 | Average Termite Rating (termites; [9]): 4.8 | Average Termite Rating (termites; [10]): 0.6 | Average Termite Rating (termites; [11]): 0.6 | Average Termite Rating (termites; [12]): 0.6 | Average Termite Rating (termites; [13]): 1.2 | Average Termite Rating (termites; [14]): 1.2 | Average Termite Rating (termites; [15]): 1.2 | Average Termite Rating (termites; [16]): 2.0 | Average Termite Rating (termites; [17]): 2.0 | Average Termite Rating (termites; [18]): 2.0 | Average Termite Rating (termites; [19]): 0.0 | Average Termite Rating (termites; [20]): 0.0 | Average Termite Rating (termites; [21]): 0.0 | Average Termite Rating (termites; [22]): 0.0 | Average Termite Rating (termites; [23]): 0.0 | Average Termite Rating (termites; [24]): 0.0 | Average Termite Rating (termites; [25]): 0.0 | Average Termite Rating (termites; [26]): 0.0 | Average Termite Rating (termites; [27]): 0.0 | Average Termite Rating (termites; [28]): 0.0 | Average Termite Rating (termites; [29]): 0.0 | Average Termite Rating (termites; [30]): 0.0 | Average Termite Rating (termites; [31]): 0.0 | Average Termite Rating (termites; [32]): 0.0 | Average Termite Rating (termites; [33]): 0.0 | Average Termite Rating (termites; [34]): 0.0 | Average Termite Rating (termites; [35]): 0.0 | Average Termite Rating (termites; [36]): 0.0 | Average Decay Rating (decay fungi; [1]): 8.2 | Average Decay Rating (decay fungi; [2]): 8.2 | Average Decay Rating (decay fungi; [3]): 8.2 | Average Decay Rating (decay fungi; [4]): 5.8 | Average Decay Rating (decay fungi; [5]): 5.8 | Average Decay Rating (decay fungi; [6]): 5.8 | Average Decay Rating (decay fungi; [7]): 8.7 | Average Decay Rating (decay fungi; [8]): 8.7 | Average Decay Rating (decay fungi; [9]): 8.7 | Average Decay Rating (decay fungi; [10]): 2.6 | Average Decay Rating (decay fungi; [11]): 2.6 | Average Decay Rating (decay fungi; [12]): 2.6 | Average Decay Rating (decay fungi; [13]): 0.8 | Average Decay Rating (decay fungi; [14]): 0.8 | Average Decay Rating (decay fungi; [15]): 0.8 | Average Decay Rating (decay fungi; [16]): 1.2 | Average Decay Rating (decay fungi; [17]): 1.2 | Average Decay Rating (decay fungi; [18]): 1.2 | Average Decay Rating (decay fungi; [19]): 0.0 | Average Decay Rating (decay fungi; [20]): 0.0 | Average Decay Rating (decay fungi; [21]): 0.0 | Average Decay Rating (decay fungi; [22]): 0.0 | Average Decay Rating (decay fungi; [23]): 0.0 | Average Decay Rating (decay fungi; [24]): 0.0 | Average Decay Rating (decay fungi; [25]): 0.0 | Average Decay Rating (decay fungi; [26]): 0.0 | Average Decay Rating (decay fungi; [27]): 0.0 | Average Decay Rating (decay fungi; [28]): 0.0 | Average Decay Rating (decay fungi; [29]): 0.0 | Average Decay Rating (decay fungi; [30]): 0.0 | Average Decay Rating (decay fungi; [31]): 0.0 | Average Decay Rating (decay fungi; [32]): 0.0 | Average Decay Rating (decay fungi; [33]): 0.0 | Average Decay Rating (decay fungi; [34]): 0.0 | Average Decay Rating (decay fungi; [35]): 0.0 | Average Decay Rating (decay fungi; [36]): 0.0

CC1(C)C(C=C(Cl)Cl)C1C(=O)OC(C#N)c1cccc(Oc2ccccc2)c1 (stereo not drawn) [cypermethrin]
Fungicidal activity against brown rots or white rots (brown rots or white rots): generally do not have fungicidal activity

Cc1c(COC(=O)[C@@H]2[C@H](/C=C(\Cl)C(F)(F)F)C2(C)C)cccc1-c1ccccc1 (racemic) [bifenthrin]
Fungicidal activity against brown rots or white rots (brown rots or white rots): generally do not have fungicidal activity

CC1(C)C(C=C(Cl)Cl)C1C(=O)OCc1cccc(Oc2ccccc2)c1 (stereo not drawn) [permethrin]
Fungicidal activity against brown rots or white rots (brown rots or white rots): generally do not have fungicidal activity
